{"source": "patent US6384028B1", "about": "“N-acylpiperidinylcarbonylaminocarboxylic acids and their use as glycoprotein IIb/IIIa antagonists and fibrinogen-blood platelets binding inhibitors” (Fujisawa Pharmaceutical Co., Ltd., priority 1995, dated 2002)", "test_system": "platelet aggregation induced by ADP in platelet rich plasma (PRP) prepared from human blood", "experiment": "Effect on platelet aggregation induced by adenosine diphosphate (ADP)", "type": "cell-based", "details": "2 min, 3×10^8 platelets/ml, drug stirred for 2 minutes at 37° C., ADP final 2.5 μM, aggregometer", "protocol": "Test 1: Effect on Platelet Aggregation Induced by Adenosine Diphosphate (ADP)\nPlatelet rich plasma (PRP) which contains 3×10^8 platelets/ml was prepared from human blood. To the 225 μl of PRP, 25 μl of drug solution* was added, and then stirred for 2 minutes at 37° C. To the solution 5 μl of ADP (final 2.5 μM) was added as an aggregation inducer. Aggregation was measured by using an aggregometer (NBS HEMA-TRACER 801). Activity of inhibitor (test compound) was expressed as IC50 value i.e. dose required for […] inhibition of platelet aggregation.\nDrug solution* - - - Test compound was dissolved in water.", "note": "Counter-ions that a name gives are not always drawn.", "data": [{"compound": "O=C(O)C[C@@H](CCc1ccccc1)NC(=O)[C@@H]1CCCN(C(=O)/C=C/C2CCNCC2)C1", "note": "[Example 25, N-[(R)-1-[3-(4-Piperidyl)-(E)-acryloyl]-3-piperidylcarbonyl]-3(R)-phenethyl-β-alanine Hydrochloride]", "values": [{"measurement": "IC50", "value": 85, "unit": "nM"}]}]}
